Measured values published in ChEMBL document CHEMBL6087423, “Grafting a chromophore on AMD070 analogues for CXCR4 bioimaging: Chemical synthesis and in vitro assessment of the inhibition properties of the CXCR4 receptor” (Bioorg Med Chem Lett, 2025).

Assays:
[1] = test system: Human immunodeficiency virus 1; assay: Anti-HIV activity against HIV-1 IIIB infected in MT-4 cells; type: functional, organism-based; settings: Human immunodeficiency virus 1, IIIB, MT4
[2] = test system: Human immunodeficiency virus 2; assay: Anti-HIV activity against HIV-2 ROD infected in MT-4 cells; type: functional, organism-based; settings: Human immunodeficiency virus 2, ROD, MT4
[3] = biological target: T1, C-X-C chemokine receptor type 4 (Homo sapiens, UniProt P61073); assay: Binding affinity to CXCR4 (unknown origin)
[4] = biological target: T1, C-X-C chemokine receptor type 4; assay: Inhibition of 12G5-PE binding to CXCR4 in human U266B1 cells assessed as cell viability incubated for 1 hr by DAPI staining based flow cytometric analysis

T1 sequence (P61073 whole entry): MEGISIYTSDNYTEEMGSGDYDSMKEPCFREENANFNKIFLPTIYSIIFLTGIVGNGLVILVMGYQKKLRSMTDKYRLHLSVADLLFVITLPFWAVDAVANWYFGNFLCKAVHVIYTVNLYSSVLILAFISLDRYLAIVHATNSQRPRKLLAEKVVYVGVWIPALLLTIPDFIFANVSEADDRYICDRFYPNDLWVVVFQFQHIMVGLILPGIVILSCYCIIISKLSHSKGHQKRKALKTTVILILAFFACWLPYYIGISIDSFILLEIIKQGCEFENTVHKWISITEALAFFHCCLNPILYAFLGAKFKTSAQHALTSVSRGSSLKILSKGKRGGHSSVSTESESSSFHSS

SMILES: C1CNCCNCCCNC(C2CNCCCNCCNCCCN2)CNC1 (stereo not given)
- IC50 [1]: 100 nM
- IC50 [2]: 100 nM

SMILES: NCc1cc(C(N)=O)ccc1CN(Cc1nc2ccccc2[nH]1)C1CCCc2cccnc21 (stereo not given)
- IC50 [3]: 10 nM

SMILES: COC(=O)C(=O)c1ccc(CN(Cc2nc3ccccc3[nH]2)C2CCCc3cccnc32)c(CN)c1 (stereo not given)
- IC50 [3]: 10 nM

SMILES: O=C1OC2(c3ccc(O)cc3Oc3cc(O)ccc32)c2ccc(NC(=S)NCCCCN(Cc3nc4ccccc4[nH]3)C3CCCc4cccnc43)cc21 (stereo not given)
- IC50 [4]: 5.62 µM
